Article PMC6335953, “Triggering the expression of a silent gene cluster from genetically intractable bacteria results in scleric acid discovery” (Chemical Science, 2018)

What was measured:
[1] = molecular target: T1, nicotinamide N-methyltransferase (NNMT) (Homo sapiens, UniProt P40261); assay: NNMT concentration-response assay (MNAN and SAH product readouts), Eli Lilly OIDD; enzyme source not stated in main text; type: biochemical
T1 sequence (P40261 1-264): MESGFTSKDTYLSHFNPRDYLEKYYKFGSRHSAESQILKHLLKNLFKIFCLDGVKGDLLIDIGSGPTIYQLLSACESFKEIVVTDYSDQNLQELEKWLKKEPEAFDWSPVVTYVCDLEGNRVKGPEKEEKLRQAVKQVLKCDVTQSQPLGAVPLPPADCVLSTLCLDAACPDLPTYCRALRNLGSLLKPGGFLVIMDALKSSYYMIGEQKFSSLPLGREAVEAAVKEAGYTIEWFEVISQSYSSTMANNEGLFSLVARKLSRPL

[2] = system: T2, Acinetobacter baumanii ATCC 19606; assay: microbe, parasite or virus in culture; set-up: CLSI broth microdilution MIC in 96-well plates, cation-adjusted Mueller-Hinton broth; settings: Acinetobacter baumannii, ATCC19606
T2 construct: ATCC 19606
Experimental: (§1) The susceptibility of bacterial strains was investigated in collaboration with the Warwick Antimicrobial Screening Facility in a 96-well plate experiment, according to the Clinical & Laboratory Standards Institute (CLSI) guidelines (M7-A9 2012). Scleric acid was diluted to a concentration of 7.5 mg mL^–1 in 25% DMSO in distilled water. […] This was then further doubling diluted throughout the MIC. Meropenem and cefoxitin were used as positive controls during MIC testing. The antimicrobial activity of scleric acid was assessed. Inhibitory activity against representatives of the ESKAPE panel of pathogens: Enterococcus faecium, Staphylococcus aureus, Klebsiella pneumoniae, Acinetobacter baumannii, Pseudomonas aeruginosa, and Enterobacter cloacae was first screened but all strains appeared to be resistant to scleric acid, giving no observable MIC (ESI Table S6 ^†).

[3] = system: T3, Enterobacter cloacae NCTC 13405; assay: microbe, parasite or virus in culture; set-up: CLSI broth microdilution MIC in 96-well plates, cation-adjusted Mueller-Hinton broth; settings: NCTC13405
T3 construct: NCTC 13405
Experimental: as §1

[4] = system: T4, Enterococcus faecium ATCC 12202; assay: microbe, parasite or virus in culture; set-up: CLSI broth microdilution MIC in 96-well plates, cation-adjusted Mueller-Hinton broth; settings: ATCC12202
T4 construct: ATCC 12202
Experimental: as §1

[5] = system: T5, Klebsiella pneumoniae ATCC 700603; assay: microbe, parasite or virus in culture; set-up: CLSI broth microdilution MIC in 96-well plates, cation-adjusted Mueller-Hinton broth; settings: ATCC700603
T5 construct: ATCC 700603
Experimental: as §1

[6] = system: T6, Pseudomonas aeruginosa ATCC 27853; assay: microbe, parasite or virus in culture; set-up: CLSI broth microdilution MIC in 96-well plates, cation-adjusted Mueller-Hinton broth; settings: ATCC27853
T6 construct: ATCC 27853
Experimental: as §1

[7] = system: T7, Staphylococcus aureus USA300; assay: microbe, parasite or virus in culture; set-up: CLSI broth microdilution MIC in 96-well plates, cation-adjusted Mueller-Hinton broth
T7 construct: USA300 (ATCC BAA-1717)
Experimental: as §1

Which IC50 [1] does the source give for `O=C(OCC(=O)N1CCC[C@H]1C(=O)O)c1ccccc1` [compound 2, (2-(benzoyloxy)acetyl)-L-proline] here?
The IC50 was 178 µM.

And the MIC [2]?
The MIC was over 1020 µg/mL.

And the MIC [3]?
The MIC was over 1020 µg/mL.

What about the MIC [4] of the same compound?
The MIC was over 1020 µg/mL.

What about the MIC [5] of the same compound?
Its MIC is over 1020 µg/mL.

And the MIC [6]?
The MIC was over 1020 µg/mL.

And the MIC [7]?
The MIC was over 1020 µg/mL.
